Reference: patent EP2975033A1, “Improved cysteine-protease inhibitors” (Universitat Jaume I, priority 2014, dated 2016)
In brackets after ≈: the same amount, converted by molar mass. Read-outs that look alike come from different tables or passages of the source.

Key:
Falcipain 2 = target: T1, Falcipain 2 (Plasmodium falciparum, UniProt Q8I6U4); test: Protease assay, fluorogenic substrate Z-Phe-Arg-AMC: Falcipain 2; type: biochemical; conditions: FP2=Falcipain2
T1 construct: made in house
Excerpt: (§1) 2.1.1. Protease Assays as shown in tables 1 and 2: Cathepsin L (human), Cathepsin B (human), Rhodesain (Trypanosoma brucei rhodesiense), Falcipain 2 (Plasmodium falciparum)
(§2) Enzyme assays used to identify inhibitors of the target cysteine proteases. The effect is detected measuring fluorescence increase due to hydrolysis of fluorogenic substrates by the target enzymes in absence and presence of potential inhibitors.
(§3) • a. Proteins (enzymes): • Cathepsin L (human liver) Calbiochem • Cathepsin B (human liver) Calbiochem • Rhodesain: recombinantly expressed according to ref.: Caffrey, C. R.; Hansell, E.; Lucas, K. D.; Brinen, L. S.; Hernandez, A. A.; Cheng, J.; Gwaltney, S. L., II; Roush, W. R.; Stierhof, Y. D.; Bogyo, M.; Steverding, D.; McKerrow, J. H. Active site mapping, biochemical properties and subcellular localization of rhodesain, the major cysteine protease of Trypanosoma • Falcipain 2: recombinantly expressed according to ref.: Pandey, K. C.; Wang, S. X.; Sijwali, P. S.; Lau, A. L.; McKerrow, J. H.; Rosenthal, P. J. The Plasmodium falciparum cysteine protease falcipain-2 captures its substrate, hemoglobin, via a unique motif. Proc. Natl. Acad. Sci. U.S.A. 2005, 102, 9138-9143. • b. Buffers: • Cathepsin B: 50 mM Tris-Puffer pH 6.5 mit 2 mM DTT, 5 mM EDTA, 200 mM NaCl, 0.005% Brij35 • Cathepsin L: 50 mM Tris-Puffer pH 6.5 mit 2 mM DTT, 5 mM EDTA, 200 mM NaCl, 0.005% Brij35 • Rhodesain: 50 mM Acetat-Puffer pH 5.5 mit 5 mM DTT, 5 mM EDTA, 200 mM NaCl, 0.005% Brij35 • Falcipain 2: 50 mM Acetat-Puffer pH 5.5 mit 5 mM DTT, 5 mM EDTA, 200 mM NaCl, 0.005% Brij35 • c. Substrates: • Cathepsin L: 6,25 µM Z-Phe-Arg-7-amino-4-methylcumarin, HCl von Bachem, Ex 380 nm, Em 460 nm • Cathepsin B: 100 µM Z-Phe-Arg-7-amino-4-methylcumarin, HCl von Bachem, Ex 380 nm, Em 460 nm • Rhodesain: 10µM Z-Phe-Arg-7-amino-4-methylcumarin, HCl von Bachem, Ex 380 nm, Em 460 nm • Falcipain 2: 25µM Z-Phe-Arg-7-amino-4-methylcumarin, HCl von Bachem, Ex 380 nm, Em 460 nm • Reference substance(s)/positive control(s): E64 • d. Solvent for inhibitors and substrates: DMSO 99,5% (GC) DC4540, Sigma • e. Measurement device: Tecan Fluorescence spectrophotometer infinite F200 Pro • f. Well plates: 96 well plates, Lia-Plate White, Greiner bio-one, flat bottom, high binding • g. Methodology: Substrates and inhibitor stock solutions are prepared in DMSO and diluted with the respective assay buffer (final DMSO concentration: […]). Enzyme stock solutions are diluted with assay buffer to yield a fluorescence increase of dF/min ≈ _20. Total volume: 200 µL (180 µL of assay buffer, 5 µL of enzyme solution, 10 µL of DMSO or inhibitor solution, 5 µL of substrate solution). Assays are started by the addition of substrate solution. Fluorescence increase is detected over a period of 10 - 30 min, depending on time dependent (30 min) or non-time dependent (10 min) inhibition. • h. Temp: 25 °C • i. DATA-[…] • Software: Grafit 5.013 • Ki values are calculated from IC50 values (obtained by the 4-parameter IC50 equation) using the Chen-Prusoff equation: Ki=IC50/(1 + [S]/Km)
(§4) In vitro inhibition of cysteine-proteases cruzain (CR) (Trypanosoma cruzi (T. cruzi)), rhodesain (RD) (T. brucei), cathepsin B (CB), falcipain (FP2) (Plasmodium falciparum) and cathepsin L (CL) was assessed by quantification of the resulting fluorescence emission of the proteolytic breakdown of synthetic compound Z-Phe-Arg-AMC (Bachem). The results of this determination are shown in tables 1 and 2 illustrated above.

Cathepsin L (human) = target: T2, Cathepsin L (human) (Homo sapiens, UniProt P07711); test: Protease assay, fluorogenic substrate Z-Phe-Arg-AMC: Cathepsin L; type: biochemical
T2 construct: Cathepsin L (human liver) Calbiochem; purchased Calbiochem; host or cells: human liver (tissue-derived)
T2 sequence (P07711 114-333): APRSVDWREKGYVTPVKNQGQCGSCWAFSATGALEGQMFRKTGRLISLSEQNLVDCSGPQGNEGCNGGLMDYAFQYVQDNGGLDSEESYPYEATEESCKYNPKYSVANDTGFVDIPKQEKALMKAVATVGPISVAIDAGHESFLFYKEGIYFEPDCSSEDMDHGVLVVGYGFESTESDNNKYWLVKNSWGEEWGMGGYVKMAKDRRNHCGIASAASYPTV
Excerpt: as §1, §2, §3, §4

Cathepsin B (human) = target: T3, Cathepsin B (human) (Homo sapiens, UniProt P07858); test: Protease assay, fluorogenic substrate Z-Phe-Arg-AMC: Cathepsin B; type: biochemical
T3 construct: Cathepsin B (human liver) Calbiochem; purchased Calbiochem; host or cells: human liver (tissue-derived)
Excerpt: as §1, §2, §3, §4

[1] = test system: P. falciparum NF54 strain; test: Activity against P. falciparum, 3H-hypoxanthine incorporation assay; type: cell-based; conditions: for IC50: Plasmodium falciparum
cruzain (CR) = cruzain (CR) (Trypanosoma cruzi, UniProt P25779); test: In vitro inhibition of cruzain, fluorescence of Z-Phe-Arg-AMC breakdown; type: biochemical
cruzain (CR), sequence (P25779 123-467): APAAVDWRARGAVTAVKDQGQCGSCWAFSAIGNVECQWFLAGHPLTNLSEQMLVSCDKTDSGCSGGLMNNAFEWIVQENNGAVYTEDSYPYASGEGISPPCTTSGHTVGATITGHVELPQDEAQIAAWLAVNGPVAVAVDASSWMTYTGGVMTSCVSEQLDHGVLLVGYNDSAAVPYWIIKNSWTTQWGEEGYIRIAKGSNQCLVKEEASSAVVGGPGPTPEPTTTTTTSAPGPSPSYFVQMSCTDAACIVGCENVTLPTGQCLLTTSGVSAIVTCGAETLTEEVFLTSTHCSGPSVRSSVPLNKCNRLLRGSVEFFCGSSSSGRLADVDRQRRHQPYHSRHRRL
Procedure: as §2, §4

Rhodesain = target: T4, Rhodesain (Trypanosoma brucei rhodesiense, UniProt Q95PM0); test: Protease assay, fluorogenic substrate Z-Phe-Arg-AMC: Rhodesain; type: biochemical; conditions: for IC50: RD=Rhodesain, 25 °C, pH 5.5, 10µM substrate
T4 construct: made in house
T4 sequence (Q95PM0 entry or part of it): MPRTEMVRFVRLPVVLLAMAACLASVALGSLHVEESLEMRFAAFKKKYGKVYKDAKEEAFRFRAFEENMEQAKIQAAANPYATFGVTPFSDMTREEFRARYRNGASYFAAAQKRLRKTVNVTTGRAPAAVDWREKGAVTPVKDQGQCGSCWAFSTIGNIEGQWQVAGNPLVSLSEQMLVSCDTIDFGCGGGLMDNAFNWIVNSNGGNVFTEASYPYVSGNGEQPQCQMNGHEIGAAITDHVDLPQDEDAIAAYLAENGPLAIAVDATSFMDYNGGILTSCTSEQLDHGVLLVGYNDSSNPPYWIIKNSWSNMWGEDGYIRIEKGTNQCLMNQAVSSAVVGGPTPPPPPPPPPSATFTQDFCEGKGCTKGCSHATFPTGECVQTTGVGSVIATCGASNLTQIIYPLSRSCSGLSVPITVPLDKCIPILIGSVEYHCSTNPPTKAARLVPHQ
Excerpt: as §1, §2, §3, §4

[2] = test system: Trypanosoma brucei rhodesiense STIB900; test: Activity against Trypanosoma brucei rhodesiense STIB900 (Alamar Blue); type: cell-based; conditions: for IC50: Trypanosoma brucei
Procedure: (§5) For all the susceptibility assays with parasites and cells, each drug was tested in duplicate and each assay was repeated at least once. • a. Activity against Trypanosoma brucei rhodesiense STIB900. This stock was isolated in 1982 from a human patient in Tanzania and after several mouse passages cloned and adapted to axenic culture conditions (Baltz et al 1985) Minimum Essential Medium (50 µl) supplemented with 25 mM HEPES, 1g/l additional glucose, 1% MEM non-essential amino acids (100x), 0.2 mM 2-mercaptoethanol, 1 mM Na-pyruvate and 15% heat inactivated horse serum was added to each well of a 96-well microtiter plate. Serial drug dilutions of eleven 3-fold dilution steps covering a range from 100 to 0.002 µg/ml were prepared. Then 4x10^3 bloodstream forms of T. b. rhodesiense STIB 900 in 50 µl was added to each well and the plate incubated at 37 °C under a 5 % CO2 atmosphere for 70 h. 10 µl Alamar Blue (resazurin, 12.5 mg in 100 ml double-distilled water) was then added to each well and incubation continued for a further 2-4 h (Raz et al 1997). Then the plates were read with a Spectramax Gemini XS microplate fluorometer (Molecular Devices Cooperation, Sunnyvale, CA, USA) using an excitation wave length of 536 nm and an emission wave length of 588 nm. The IC50 values were calculated by linear regression (Huber 1993) from the sigmoidal dose inhibition curves using SoftmaxPro software (Molecular Devices Cooperation, Sunnyvale, CA, USA). Melarsoprol (Arsobal Sanofi-Aventis, received from WHO) is used as control. • b. Activity against T. cruzi. Rat skeletal myoblasts (L-6 cells) were seeded in 96-well microtitre plates at 2000 cells/well in 100 µL RPMI 1640 medium with 10% FBS and 2 mM I-glutamine. After 24 h the medium was removed and replaced by 100 µl per well containing 5000 trypomastigote forms of T. cruzi Tulahuen strain C2C4 containing the β-galactosidase (Lac Z) gene (Buckner et al. 1996). After 48 h the medium was removed from the wells and replaced by 100 µl fresh medium with or without a serial drug dilution of eleven 3-fold dilution steps covering a range from 100 to 0.002 µg/ml. After 96 h of incubation the plates were inspected under an inverted microscope to assure growth of the controls and sterility. Then the substrate CPRG/Nonidet (50 µl) was added to all wells. A color reaction developed within 2-6 h and could be read photometrically at 540 nm. Data were analyzed with the graphic programme Softmax Pro (Molecular Devices), which calculated IC50 values by linear regression (Huber 1993) from the sigmoidal dose inhibition curves. […] Activity against L. donovani axenic amastigotes. Amastigotes of L. donovani strain MHOM/ET/67/L82 were grown in axenic culture at 37 °C in SM medium (Cunnigham et al. 1977) at pH 5.4 supplemented with 10% heat-inactivated fetal bovine serum under an atmosphere of 5% CO2 in air. One hundred microlitres of culture medium with 10^5 amastigotes from axenic culture with or without a serial drug dilution were seeded in 96-well microtitre plates. Serial drug dilutions of eleven 3-fold dilution steps covering a range from 90 to 0.002 µg/ml were prepared. After 70 h of incubation the plates were inspected under an inverted microscope to assure growth of the controls and sterile conditions. 10 µl of Alamar Blue (12.5 mg resazurin dissolved in 100 ml distilled water) (Mikus and Steverdig. 2000) were then added to each well and the plates incubated for another 2 h. Then the plates were read with a Spectramax Gemini XS microplate fluorometer (Molecular Devices Cooperation, Sunnyvale, CA, USA) using an excitation wave length of 536 nm and an emission wave length of 588 nm. Data were analyzed using the software Softmax Pro (Molecular Devices Cooperation, Sunnyvale, CA, USA). Decrease of fluorescence (= inhibition) was expressed as percentage of the fluorescence of control cultures and plotted against the drug concentrations. From the sigmoidal inhibition curves the IC50 values were calculated. • d.

[3] = test system: T. cruzi Tulahuen strain C2C4; test: Activity against T. cruzi in L-6 cells (beta-galactosidase, CPRG); type: cell-based; conditions: for IC50: Trypanosoma cruzi, TULAHUEN
Procedure: as §5

[4] = CL=CathepsinL; 25 °C, pH 6.5, 6,25 µM substrate; read-out: CL(IC50)
[5] = read-out: CL(IC50); CL=CathepsinL; 25 °C, pH 6.5, 6,25 µM substrate
[6] = read-out: CBIC50micM; CB=CathepsinB; 25 °C, pH 6.5, 100 µM substrate
[7] = CB=CathepsinB; 25 °C, pH 6.5, 100 µM substrate; read-out: CBIC50micM

T1 sequence (Q8I6U4 244-484): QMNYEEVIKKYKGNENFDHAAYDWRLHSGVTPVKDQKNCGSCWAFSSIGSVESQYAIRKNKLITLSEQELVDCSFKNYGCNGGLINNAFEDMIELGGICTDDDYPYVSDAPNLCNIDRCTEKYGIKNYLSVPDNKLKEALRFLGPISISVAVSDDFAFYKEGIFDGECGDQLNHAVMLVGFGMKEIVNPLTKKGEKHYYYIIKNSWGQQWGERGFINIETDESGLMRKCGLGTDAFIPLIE

SMILES	FP2(K2nd(M-1s-1)) (Falcipain 2)	CL(K2nd(M-1s-1)) (Cathepsin L (human); CL=CathepsinL) [M⁻¹ s⁻¹]	IC50 (Cathepsin L (human); [4]) [nM]	CB(K2nd(M-1s-1)) (Cathepsin B (human); CB=CathepsinB) [M⁻¹ s⁻¹]	CR(K2nd(M-1s-1)) (cruzain (CR)) [M⁻¹ s⁻¹]	IC50 (cruzain (CR)) [nM]	RD(K2nd(M-1s-1)) (Rhodesain) [M⁻¹ s⁻¹]	IC50 (Rhodesain) [nM]	further results
O=C(O)/C=C/[C@@H](O)[C@H](CCc1ccccc1)NC(=O)[C@H](Cc1ccccc1)NC(=O)OCc1ccccc1	29 M⁻¹ s⁻¹	882	20000						
CCOC(=O)C=CC(O)C(CCc1ccccc1)NC(=O)C(Cc1ccccc1)NC(=O)OCc1ccccc1 (single isomer, unassigned)		77		14					
CCN(CC)CCCC(C)Nc1ccnc2cc(Cl)ccc12 (stereo not shown) [Chloroquine, reference compound]									IC50 ([1]; NF54, read-out: P.falc NF54 IC50 mean, mean of replicates): 3 ng/mL (≈ 0.00938 µM); IC50 ([1]; NF54, read-out: P.falc NF54 IC50 repl1, replicate 1, erythrocytic stages, NF54): 3 ng/mL (≈ 0.00938 µM); IC50 ([1]; NF54, read-out: P.falc NF54 IC50 repl2, replicate 2, erythrocytic stages, NF54): 2 ng/mL (≈ 0.00625 µM); P.falc NF54 IC50 repl1 ([1]; replicate 1, erythrocytic stages, NF54): 0,002 micrograms/mL
CCOC(=O)/C=C/C(=O)[C@H](CC(C)C)NC(=O)[C@H](Cc1ccccc1)NC(=O)OCc1ccccc1		758621		138462	516667	16.2	1611111	16.4	IC50 (Cathepsin L (human); [5]): 9.6 nM; IC50 (Cathepsin B (human); [6]): 53 nM
CCOC(=O)/C=C/[C@@H](O)[C@H](CCc1ccccc1)NC(=O)[C@H](Cc1ccccc1)NC(=O)OCc1ccccc1	557 M⁻¹ s⁻¹	1127	13000	772			3207	9500	IC50 (Cathepsin B (human); [7]): 24000 nM
Nc1nc(N)nc(Nc2ccc([As]3SCC(CO)S3)cc2)n1 (stereo not shown) [Melarsoprol, reference compound]									IC50 ([2]; 70 h, read-out: T.b.rhod. IC50 repl1, replicate 1, bloodstream forms, 70 h): 5 ng/mL; IC50 ([2]; 70 h, read-out: T.b.rhod. IC50 repl2, replicate 2, bloodstream forms, 70 h): 2 ng/mL; IC50 ([2]; read-out: T.b.rhod. IC50 mean, mean of replicates): 3 ng/mL; T.b.rhod. IC50 mean ([2]; mean of replicates): 0,004 micrograms/mL; T.b.rhod. IC50 repl1 ([2]; replicate 1, bloodstream forms, 70 h): 0,003 micrograms/mL; T.b.rhod. IC50 repl2 ([2]; replicate 2, bloodstream forms, 70 h): 0,004 micrograms/mL
CC(C)C[C@H](NC(=O)[C@H](Cc1ccccc1)NC(=O)OCc1ccccc1)C(=O)/C=C/S(=O)(=O)c1ccccc1		383272		82248	709411	11.1	1361750	6	IC50 (Cathepsin L (human); [5]): 9.95 nM; IC50 (Cathepsin B (human); [6]): 50 nM
CCOC(=O)/C=C/[C@@H](O)[C@H](C)NC(=O)[C@H](Cc1ccccc1)NC(=O)OCc1ccccc1	2,735 M-1s-1	828	14300				10951	45100	
O=C(Cn1ccnc1[N+](=O)[O-])NCc1ccccc1 [Benznidazole]									IC50 ([3]; L6, 96 h, replicate 1, L-6 cells, 96 h, read-out: T.cruzi. IC50 repl1): 657 ng/mL (≈ 2.52 µM); IC50 ([3]; L6, 96 h, replicate 2, L-6 cells, 96 h, read-out: T.cruzi. IC50 repl2): 522 ng/mL (≈ 2.01 µM); IC50 ([3]; L6, control value stated in the method text): 500 ± 200 ng/mL (≈ 1.92 µM); IC50 ([3]; L6, mean of replicates, read-out: T.cruzi. IC50 mean): 590 ng/mL (≈ 2.27 µM); T.cruzi. IC50 mean ([3]; mean of replicates): 0,516 micrograms/mL; T.cruzi. IC50 repl1 ([3]; replicate 1, L-6 cells, 96 h): 0,367 micrograms/mL; T.cruzi. IC50 repl2 ([3]; replicate 2, L-6 cells, 96 h): 0,664 micrograms/mL
CCOC(=O)/C=C/[C@@H](O)[C@H](CCc1ccccc1)NC(=O)[C@H](Cc1ccccc1)NC(=O)N1CCOCC1		1860	2450	4190	3615	3750	36735	1130	IC50 (Cathepsin B (human); [7]): 1130 nM
